Biological target: T1, PLK4 (Homo sapiens, UniProt O00444)
T1 construct: expressed in transfected cells; host or cells: HEK293 T cells (ATCC CRL-3216)
T1 sequence (O00444 1-970): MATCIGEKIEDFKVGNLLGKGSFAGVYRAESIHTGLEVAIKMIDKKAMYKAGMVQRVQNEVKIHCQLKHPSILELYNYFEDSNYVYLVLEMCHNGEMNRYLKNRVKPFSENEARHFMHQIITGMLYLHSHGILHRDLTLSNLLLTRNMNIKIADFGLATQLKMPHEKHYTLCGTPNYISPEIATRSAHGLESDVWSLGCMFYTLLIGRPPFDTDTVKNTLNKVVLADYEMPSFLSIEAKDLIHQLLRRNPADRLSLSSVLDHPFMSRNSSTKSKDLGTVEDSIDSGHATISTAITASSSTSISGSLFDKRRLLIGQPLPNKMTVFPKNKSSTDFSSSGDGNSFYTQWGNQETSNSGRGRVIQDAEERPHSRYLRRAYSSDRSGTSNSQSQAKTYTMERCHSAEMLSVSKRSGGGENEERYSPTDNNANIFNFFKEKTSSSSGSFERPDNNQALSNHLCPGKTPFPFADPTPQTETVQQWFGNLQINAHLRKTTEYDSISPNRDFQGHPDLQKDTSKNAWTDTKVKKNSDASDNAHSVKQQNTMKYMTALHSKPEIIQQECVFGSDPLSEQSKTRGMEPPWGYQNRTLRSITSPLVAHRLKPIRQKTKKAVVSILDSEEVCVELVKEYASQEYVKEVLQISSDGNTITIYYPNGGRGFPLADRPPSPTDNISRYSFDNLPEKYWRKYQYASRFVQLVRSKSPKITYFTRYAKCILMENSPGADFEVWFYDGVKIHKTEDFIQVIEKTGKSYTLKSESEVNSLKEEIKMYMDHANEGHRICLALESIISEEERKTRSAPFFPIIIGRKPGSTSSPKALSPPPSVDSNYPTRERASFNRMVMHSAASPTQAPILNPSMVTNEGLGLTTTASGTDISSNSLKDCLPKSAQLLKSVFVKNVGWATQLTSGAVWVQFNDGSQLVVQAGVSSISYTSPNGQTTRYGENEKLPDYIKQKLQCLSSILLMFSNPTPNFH
Assay: PLK4 NanoBRET target engagement assay
Format: binding
Conditions: HEK293 T cells transfected with PLK4 NanoLuc fusion vector; K-5 tracer; 2 hrs incubation
Method: To determine the affinity of Compounds described herein in the PLK4 NanoBRET target engagement assay, HEK293 T cells (ATCC Product Number CRL-3216) are first transfected with the PLK4 NanoLuc fusion vector DNA and Transfection carrier DNA using the Fugene HD Transfection reagent in Opti-MEM No Phenol Red buffer. After an overnight incubation in a 37° C./5% CO2 incubator, the transfected HEK293 T cells are trypsinized, counted, and resuspended in Opti-MEM No Phenol Red buffer at a concentration of 200000 cells/mL. White 96-well plates are then plated with 85 μL of cells (17000 cells/well) to which 5 μL of the 20×K-5 tracer solution diluted in tracer dilution buffer is added. Finally, 10 μL of the 10× compounds are added and the plates and then incubated in a 37° C./5% CO2 incubator for 2 hrs. After the incubation, a 50 uL 3× solution of the substrate/inhibitor mix is added to the cells. The plate is then transferred in the Envision plate reader where the Acceptor emission (610 nm) and the Donor emission (450 nm) are measured.
The IC50 of compounds is determined as follows: • 1. The ratio between the Acceptor emission (610 nm)/Donor emission (450 nm) is calculated. • 2. This ratio is then multiplied by 1000 to obtain the mBRET units (multiplying by 1000 is an arbitrary step that simply makes the data easier to interpret; it has no impact on the data set itself) • 3. The mBRET units are then used in Scigilian Analyze software (https://analyze.scigilian.io) to determine the IC50 value using a 4-parameter fit analysis.

Compound	IC50 [nM]
Cc1cc(Nc2nc(N(C)c3c(F)cc(S(C)(=O)=O)cc3F)nc(Nc3cnccn3)c2C2CC2)n[nH]1 [Compound 328]	51
Cc1cc(Nc2nc(N(C)c3c(F)cc(N4CCS(=O)(=O)CC4)cc3F)nc(-c3cn(C)cn3)c2C2CC2)n[nH]1 [Compound 357]	300
CCS(=O)(=O)c1ccc(N(C)c2nc(Nc3cc(C)[nH]n3)c(OC)c(-c3cnn(C)c3)n2)cc1 [Compound 70]	170
CCN(c1nc(Nc2cc(C)[nH]n2)c(C2CC2)c(-c2cn(C)cn2)n1)c1cc(F)c(S(C)(=O)=O)cc1F [Compound 246]	20
COc1c(Nc2cc(C)[nH]n2)nc(N(Cc2ccc(F)cc2)c2ccc(S(C)(=O)=O)cc2F)nc1-c1cnn(C)c1 [Compound 4, N^2-(2-fluoro-4-(methylsulfonyl)phenyl)-N^2-(4-fluorobenzyl)-5-methoxy-N^4-(5-methyl-1H-pyrazol-3-yl)-6-(1-methyl-1H-pyrazol-4-yl)pyrimidine-2,4-diamine]	720
Cc1cc(Nc2nc(N(C)c3c(F)cc(S(C)(=O)=O)cc3F)nc(-c3cnc4ccc(F)cn34)c2C2CC2)n[nH]1 [Compound 310]	31
Cc1cc(Nc2nc(N(C)c3ccc(S(C)(=O)=O)cc3Cl)nc(-c3ccn(C)n3)c2C2CC2)n[nH]1 [Compound 48]	50
Cc1cc(Nc2nc(N(C)c3c(F)cc(S(C)(=O)=O)cc3F)nc(-c3cnn(C)c3C(O)(O)C(F)(F)F)c2C2CC2)n[nH]1 [Compound 306]	94
Cc1cc(Nc2nc(N(C)c3ccc(S(C)(=O)=O)cc3F)nc(-c3cnn(C4CN(S(C)(=O)=O)C4)c3)c2C2CC2)n[nH]1 [Compound 62]	28
CN(c1nc(Nc2n[nH]c3c2CCC3)c(C2CC2)c(-c2cnn(C)c2)n1)c1c(F)cc(S(C)(=O)=O)cc1F [Compound 285]	150
COc1c(Nc2cc(C)[nH]n2)nc(N(C)c2cc(Cl)c(S(C)(=O)=O)cc2F)nc1-c1cnn(C)c1 [Compound 116]	68
Cc1cc(-c2nc(N(C)c3c(F)cc(S(C)(=O)=O)cc3F)nc(Nc3cc(C)[nH]n3)c2C2CC2)cnn1 [Compound 130]	24
COCc1cc(Nc2nc(N(C)c3c(F)cc(S(C)(=O)=O)cc3F)nc(-c3cnn(C)c3)c2C2CC2)n[nH]1 [Compound 341]	420
CN(c1nc(Nc2cc(C3CC3)[nH]n2)c(C2CC2)c(-c2cnn(CC(C)(C)O)c2)n1)c1c(F)cc(S(C)(=O)=O)cc1F [Compound 297]	14
Cc1cc(Nc2nc(N(C)c3ccc(S(C)(=O)=O)cc3F)cc(-c3cnn(C)c3)c2C2CC2)n[nH]1 [Compound 20, 3-cyclopropyl-N^6-(2-fluoro-4-(methylsulfonyl)phenyl)-N^6-methyl-N^2-(5-methyl-1H-pyrazol-3-yl)-4-(1-methyl-1H-pyrazol-4-yl)pyridine-2,6-diamine]	69
COCCn1ncc(-c2nc(N(C)c3ccc(S(C)(=O)=O)cc3F)nc(Nc3cc(C)[nH]n3)c2C2CC2)c1C [Compound 220]	38
Cc1cc(Nc2nc(N(C)c3c(F)cc(S(C)(=O)=O)cc3F)nc(N3CCN(C)C(=O)C3)c2C2CC2)n[nH]1 [Compound 184]	33
Cc1cc(Nc2nc(N(C)c3c(F)cc(S(C)(=O)=O)cc3F)nc(-c3cn(C)c(CO)n3)c2C2CC2)n[nH]1 [Compound 167]	30
COc1c(Nc2cc(C)[nH]n2)nc(Oc2ccc(S(C)(=O)=O)cc2Cl)nc1-c1cnn(C)c1 [Compound 34]	900
COc1c(Nc2cc(C)[nH]n2)nc(Sc2ccc(S(C)(=O)=O)cc2F)c(Cl)c1-c1cnn(C)c1 [Compound 100]	240
Cc1cc(Nc2nc(N(C)c3c(F)cc(Br)cc3F)nc(-c3cn(C)cn3)c2C2CC2)n[nH]1 [Compound 335]	43
Cc1cc(Nc2nc(N(C)c3c(F)cc(C4CC4)cc3F)nc(-c3cn(C)cn3)c2C2CC2)n[nH]1 [Compound 343]	26
COc1c(Nc2cc(C)[nH]n2)nc(Oc2c(F)cc(Br)cc2F)nc1-c1cnn(C)c1 [Compound 29]	1300
COc1c(Nc2cc(C)[nH]n2)nc(Oc2ccc(S(C)(=O)=O)cc2F)nc1-c1cnn(C)c1 [Compound 9, 2-(2-fluoro-4-(methylsulfonyl)phenoxy)-5-methoxy-N-(5-methyl-1H-pyrazol-3-yl)-6-(1-methyl-1H-pyrazol-4-yl)pyrimidin-4-amine]	400
Cc1cc(Nc2nc(N(C)c3cc(F)c(S(C)(=O)=O)cc3F)nc(-c3ccn(CCO)n3)c2C2CC2)n[nH]1 [Compound 230]	26

Now those with a lower IC50, led by results:

IC50 [nM]	Compound
3	COC1CCc2nc(-c3nc(N(C)c4c(F)cc(S(C)(=O)=O)cc4F)nc(Nc4cc(C)[nH]n4)c3C3CC3)cn2C1 (centres unmarked) [Compound 324]
4	Cc1cc(Nc2nc(N(C)c3c(F)cc(S(C)(=O)=O)cc3F)nc(-c3cn(C4CC4)cn3)c2C2CC2)n[nH]1 [Compound 148]
11	Cc1cc(Nc2nc(N(C)c3c(F)cc(S(C)(=O)=O)cc3F)nc(-c3cc(CO)n(C)n3)c2C2CC2)n[nH]1 [Compound 178]
11	Cc1cc(Nc2nc(N(C)c3c(F)cc(S(C)(=O)=O)cc3F)nc(-c3cc(C(F)F)n(C)n3)c2C2CC2)n[nH]1 [Compound 163]
5	Cc1cc(Nc2nc(N(C)c3c(F)cc(S(C)(=O)=O)cc3F)nc(-c3cnn(C)c3C(=O)N(C)C)c2C2CC2)n[nH]1 [Compound 260]
7	Cc1cc(Nc2nc(N(C)c3cc(F)c(S(C)(=O)=O)cc3F)nc(-c3cn(C)nc3C)c2C2CC2)n[nH]1 [Compound 159]
2	CN(c1nc(Nc2cc(C3CC3)[nH]n2)c(C2CC2)c(-c2cn3c(n2)COCC3)n1)c1c(F)cc(S(C)(=O)=O)cc1F [Compound 273]
8	Cc1cc(Nc2nc(N(C)c3c(F)cc(S(C)(=O)=O)cc3F)nc(-c3c[nH]nc3C)c2C2CC2)n[nH]1 [Compound 122]
4	Cc1cc(Nc2nc(N(C)c3c(F)cc(S(C)(=O)=O)cc3F)nc(-c3cnn(C)c3C(N)=O)c2C2CC2)n[nH]1 [Compound 231]
5	CCc1cc(Nc2nc(N(C)c3c(F)cc(S(C)(=O)=O)cc3F)nc(-c3cnn(C)c3)c2C2CC2)n[nH]1 [Compound 258]
6	Cc1cc(Nc2nc(N(C)c3c(F)cc(S(C)(=O)=O)cc3F)nc(-c3cnn(CF)c3)c2C2CC2)n[nH]1 [Compound 127]
4	Cc1cc(Nc2nc(N(C)c3c(F)cc(S(C)(=O)=O)cc3F)nc(-c3cc(CC#N)n(C)n3)c2C2CC2)n[nH]1 [Compound 340]
13	Cc1cc(Nc2nc(N(C)c3c(F)cc(S(C)(=O)=O)cc3F)nc(-c3cnn4c3CC(C)(C)C4)c2C2CC2)n[nH]1 [Compound 176]
3	Cc1cc(Nc2nc(N(C)c3c(F)cc(S(C)(=O)=O)cc3F)nc(-c3cn[nH]c3C(C)C)c2C2CC2)n[nH]1 [Compound 352]
5	[2H]C([2H])([2H])N(C([2H])([2H])[2H])S(=O)(=O)c1ccc(N(C)c2nc(Nc3cc(C)[nH]n3)c(C3CC3)c(-c3cnn(C)c3)n2)c(F)c1 [Compound 26]
11	CN(c1nc(Nc2cc(C3CC3)[nH]n2)c(C2CC2)c(-c2cn(C)cn2)n1)c1cc(F)c(S(C)(=O)=O)cc1F [Compound 298]
3	Cc1cc(Nc2nc(N(C)c3c(F)cc(S(C)(=O)=O)cc3F)nc(-c3cnn([C@H]4CC[C@H](O)CC4)c3)c2C2CC2)n[nH]1 [Compound 193]
5	CN(c1nc(Nc2cc(C3CC3)[nH]n2)c(C2CC2)c(-c2ccn(CCO)n2)n1)c1c(F)cc(S(C)(=O)=O)cc1F [Compound 265]
7	Cc1cc(Nc2nc(N(C)c3c(F)cc(S(C)(=O)=O)cc3F)nc(-c3cnn(CCO)c3C)c2C2CC2)n[nH]1 [Compound 201]

Source: US20250177396A1, “POLO-LIKE KINASE 4 (PLK4) INHIBITORS, PHARMACEUTICAL COMPOSITIONS, METHODS OF PREPARATION AND USES THEREOF” (Repare Therapeutics Inc., priority 2022, published 2025)
